Assay results: BigSolDB 2.1

Conditions: in water

| SMILES | solubility (mole fraction) (298.1 K) | solubility (mole fraction) (303.1 K) | solubility (mole fraction) (310.1 K) | solubility (mole fraction) (318.1 K) | solubility (mole fraction) (328.1 K) |
| --- | --- | --- | --- | --- | --- |
| CC(C)(C)CC(C)(C)c1ccc(O)cc1 | 1.32e-06 | 1.55e-06 | 1.91e-06 | 2.52e-06 | 3.83e-06 |
| CCCCCCCCCc1ccc(O)cc1 | 4e-08 | 5e-08 | 7e-08 | 1.4e-07 | 2e-07 |
| CCCCCCCCc1ccc(O)cc1 | 2.9e-07 | 3.4e-07 | 4.7e-07 | 6.4e-07 | 8.4e-07 |
